In PubChem BioAssay AID1963872 (Molecular Pharmacology Branch, DTP, NCI, 2024):

Test system: KRAS patient-derived spheroids with HUVEC/MSC, viability
Test: Anticancer human tumor 519858-162-T-J1-PDC patient-derived colon adenocarcinoma cell line growth inhibition [KRAS2]
Details: for IC50: curve of first compound; for viability, T/C: stronger effect = lower value
Procedure, shortened: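 KRAS-mutant tumor cells were grown as spheroids with HUVEC endothelial cells and human MSCs as stroma. Targeted agents were tested alone and with KRAS pathway inhibitors. Doses started at or near clinical Cmax, or 10 microM, descending half-log.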

[1] = second compound 0.1 µM, first compound 0.01 µM
[2] = second compound 0.1 µM, first compound 0.0316 µM
[3] = second compound 0.1 µM, first compound 0.1 µM
[4] = second compound 0.316 µM, first compound 0.01 µM
[5] = second compound 0.316 µM, first compound 0.0316 µM
[6] = second compound 0.316 µM, first compound 0.1 µM
[7] = second compound 1 µM, first compound 0.01 µM
[8] = second compound 1 µM, first compound 0.0316 µM
[9] = second compound 1 µM, first compound 0.1 µM
[10] = second compound 3.16 µM, first compound 0.01 µM
[11] = second compound 3.16 µM, first compound 0.0316 µM
[12] = second compound 3.16 µM, first compound 0.1 µM
[13] = second compound 10 µM, first compound 0.01 µM
[14] = second compound 10 µM, first compound 0.0316 µM
[15] = second compound 10 µM, first compound 0.1 µM
[16] = second compound 0.1 µM, first compound 0.000316 µM
[17] = second compound 0.1 µM, first compound 0.001 µM
[18] = second compound 0.1 µM, first compound 0.00316 µM
[19] = second compound 0.316 µM, first compound 0.000316 µM
[20] = second compound 0.316 µM, first compound 0.001 µM
[21] = second compound 0.316 µM, first compound 0.00316 µM
[22] = second compound 1 µM, first compound 0.000316 µM
[23] = second compound 1 µM, first compound 0.001 µM
[24] = second compound 1 µM, first compound 0.00316 µM
[25] = second compound 3.16 µM, first compound 0.000316 µM
[26] = second compound 3.16 µM, first compound 0.001 µM
[27] = second compound 3.16 µM, first compound 0.00316 µM
[28] = second compound 10 µM, first compound 0.000316 µM
[29] = second compound 10 µM, first compound 0.001 µM
[30] = second compound 10 µM, first compound 0.00316 µM
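Note: compound exposure lasted seven days before readout.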
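Throughout, for viability, T/C: 100% = DMSO vehicle control viability.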

Row | Compound | IC50 (second compound 0.1 µM) | IC50 (second compound 0.316 µM) | IC50 (second compound 1 µM) | IC50 (second compound 3.16 µM) | IC50 (second compound 10 µM) | viability, T/C [1] | viability, T/C [2] | viability, T/C [3] | viability, T/C [4] | viability, T/C [5] | viability, T/C [6] | viability, T/C [7] | viability, T/C [8] | viability, T/C [9] | viability, T/C [10] | viability, T/C [11] | viability, T/C [12] | viability, T/C [13] | viability, T/C [14] | viability, T/C [15] | other results
1 | CC1COCCN1c1cc(-c2ccnn2C)c2ccnc(-c3ccn[nH]3)c2n1 (stereo not given) + CNCc1ccccc1-c1csc(C(C)Nc2nc(C)nc3cc(OC)c(OC)cc23)c1 | 1760 nM | 1040 nM | 1430 nM | 568 nM | < 10 nM | 76.8% | 90.3% | 62.7% | 95% | 62.8% | 83.2% | 70.9% | 89.8% | 95% | 64.1% | 50.8% | 60% | 0.21% | 0.21% | 8.05% | viability, T/C (second compound 0.1 µM, first compound 0.316 µM): 82.5%; viability, T/C (second compound 0.1 µM, first compound 1 µM): 59.9%; viability, T/C (second compound 0.1 µM, first compound 3.16 µM): 39.8%; viability, T/C (second compound 0.316 µM, first compound 0.316 µM): 68.6%; viability, T/C (second compound 0.316 µM, first compound 1 µM): 48.7%; viability, T/C (second compound 0.316 µM, first compound 3.16 µM): 28.4%; viability, T/C (second compound 1 µM, first compound 0.316 µM): 79.7%; viability, T/C (second compound 1 µM, first compound 1 µM): 58.8%; viability, T/C (second compound 1 µM, first compound 3.16 µM): 30.6%; viability, T/C (second compound 3.16 µM, first compound 0.316 µM): 70.5%; viability, T/C (second compound 3.16 µM, first compound 1 µM): 39%; viability, T/C (second compound 3.16 µM, first compound 3.16 µM): 20.4%; viability, T/C (second compound 10 µM, first compound 0.316 µM): 0.31%; viability, T/C (second compound 10 µM, first compound 1 µM): 0.32%; viability, T/C (second compound 10 µM, first compound 3.16 µM): 0.28%
2 | CN(C)C/C=C/C(=O)Nc1cc2c(Nc3ccc(F)c(Cl)c3)ncnc2cc1O[C@H]1CCOC1 + CNCc1ccccc1-c1csc(C(C)Nc2nc(C)nc3cc(OC)c(OC)cc23)c1 | > 100 nM | > 100 nM | > 100 nM | 10.5 nM | < 0.316 nM | 63.4% | 84% | 77.8% | 59.4% | 69.5% | 54.6% | 51% | 89.2% | 68.9% | 43.5% | 61.6% | 37.3% | 0.36% | 0.8% | 0.42% | viability, T/C [16]: 118%; viability, T/C [17]: 89.8%; viability, T/C [18]: 70.9%; viability, T/C [19]: 81.1%; viability, T/C [20]: 74.8%; viability, T/C [21]: 70.2%; viability, T/C [22]: 64.8%; viability, T/C [23]: 59.2%; viability, T/C [24]: 55.2%; viability, T/C [25]: 60.6%; viability, T/C [26]: 61%; viability, T/C [27]: 47.7%; viability, T/C [28]: 0.31%; viability, T/C [29]: 0.87%; viability, T/C [30]: 0.47%
3 | CC(C)n1nc(-c2ccc3oc(N)nc3c2)c2c(N)ncnc21 + COc1cc2nc(C)nc(NC(C)c3cc(N)cc(C(F)(F)F)c3)c2cc1OC1CCOC1 | > 100 nM | > 100 nM | > 100 nM | > 100 nM | 4.58 nM | 73% | 70.9% | 74.9% | 84.9% | 73.5% | 72.2% | 67.8% | 65.6% | 77.4% | 72.5% | 60.2% | 84.7% | 42.6% | 30.2% | 45.6% | viability, T/C [16]: 107%; viability, T/C [17]: 93.9%; viability, T/C [18]: 79.3%; viability, T/C [19]: 89.1%; viability, T/C [20]: 99.8%; viability, T/C [21]: 90.2%; viability, T/C [22]: 89.9%; viability, T/C [23]: 84.8%; viability, T/C [24]: 75.5%; viability, T/C [25]: 117%; viability, T/C [26]: 84.2%; viability, T/C [27]: 93.4%; viability, T/C [28]: 78.1%; viability, T/C [29]: 71.7%; viability, T/C [30]: 54.3%
